In patent US20080275029A1, “Compounds for Treating Protein-Kinase Mediated Disorders” (ASTEX THERAPEUTICS LIMITED, priority 2004, published 2008) one finds IC50 data, which are given here for 37 compounds.

The test has as its target T1, protein kinase B (PKB), fusion protein PKB-PIF (Homo sapiens, UniProt P31751).
T1 construct: made in house
As to the kind of experiment: Measurement of PKB kinase inhibitory activity (IC50). It is filed as biochemical. Here is the method:
The inhibition of protein kinase B (PKB) activity by compounds can be determined essentially as described by Andjelkovic et al. (Mol. Cell. Biol. 19, 5061-5072 (1999)) but using a fusion protein described as PKB-PIF and described in full by Yang et al (Nature Structural Biology 9, 940-944 (2002)). […] A final concentration of 0.6 nM enzyme is used in a buffer that includes 20 mM MOPS pH 7.2, 30 μM ATP/γ^33P-ATP and 25 μM substrate. Compounds are added in DMSO solution to a final DMSO concentration of 2.5%. The reaction is allowed to proceed for 20 minutes before addition of excess orthophosphoric acid to quench activity. The reaction mixture is transferred to a phosphocellulose filter plate where the peptide binds and the unused ATP is washed away. After washing, scintillant is added and the incorporated activity measured by scintillation counting.
The % inhibition of the PKB activity is calculated and plotted in order to determine the concentration of test compound required to inhibit 50% of the PKB activity (IC50).

The mark [1] stands for this setting: PKB-PIF activated with PDK1, 30 μM ATP, AKTide-2T substrate, 20 minutes, read-out: IC50 (concentration required to inhibit 50% of the PKB activity).

Molecules are shown by their SMILES. Where a name gives a salt, the structure may show the parent alone. Read-outs that look alike come from different tables or passages of the source. Some results are limits rather than exact numbers.

T1 sequence (P31751 with tags, fused parts or gaps limits assumed): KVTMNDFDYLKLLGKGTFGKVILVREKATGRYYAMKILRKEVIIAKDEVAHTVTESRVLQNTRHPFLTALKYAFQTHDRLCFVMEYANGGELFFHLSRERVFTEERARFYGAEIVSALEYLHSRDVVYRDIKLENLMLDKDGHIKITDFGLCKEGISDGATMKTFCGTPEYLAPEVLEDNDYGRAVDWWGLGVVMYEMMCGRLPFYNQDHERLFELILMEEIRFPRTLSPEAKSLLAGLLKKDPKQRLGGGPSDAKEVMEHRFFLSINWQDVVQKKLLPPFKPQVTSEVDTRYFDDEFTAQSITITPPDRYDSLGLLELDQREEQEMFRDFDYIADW

Regarding `Cn1c(=O)[nH]c(=O)c2ccc(N3CCC(CN)(Cc4ccc(Cl)cc4)CC3)cc21` [Example 42, 7-[4-Aminomethyl-4-(4-chloro-benzyl)-piperidin-1-yl]-1-methyl-1H-quinazoline-2,4-dione], under setting [1], the IC50 is below 10 µM. As to `N[C@H]1CC[C@H](Nc2ccc3c(=O)[nH]c(=O)[nH]c3c2)CC1` [Example 21, 7-(4-Amino-cyclohexylamino)-1H-quinazoline-2,4-dione], under setting [1], the IC50 is below 10 µM. With `NCCC(NC(=O)c1ccc2c(=O)[nH]cnc2c1)c1ccc(Cl)cc1` (stereo not shown) [Example 3, 4-Oxo-3,4-dihydro-quinazoline-7-carboxylic acid[3-amino-1-(4-chloro-phenyl-propyl]-amide hydrochloride], the IC50 under setting [1] is below 10 µM. Same read-out and setting: in the case of `NCCC(C(=O)Nc1ccc2c(=O)[nH]cnc2c1)c1ccc(Cl)c(Cl)c1` (stereo not shown) [Example 1, 4-Amino-2-(3,4-dichloro-phenyl)-N-(4-oxo-3,4-dihydro-quinazolin-7-yl)-butyramide] it was below 10 µM.

As to `O=c1[nH]cnc2cc(NC3CCNC3)ccc12` (stereo not shown) [Example 16, 7-(Pyrrolidin-3-ylamino)-3H-quinazolin-4-one], the IC50 was below 10 µM. On to `NCC[C@H](C(=O)Nc1ccc2c(=O)[nH]cnc2c1)c1ccc(Cl)c(Cl)c1` [Example 28], for which, under setting [1], the IC50 was below 10 µM. Same read-out and setting: the value for `N[C@H]1CC[C@H](Nc2ccc3c(=O)[nH]cnc3c2)CC1` [Example 15, 7-(trans-4-Amino-cyclohexylamino)-3H-quinazolin-4-one] was below 10 µM; that for `N[C@H]1CC[C@H](Oc2ccc3c(=O)[nH]cnc3c2)CC1` [Example 31, 7-(4-Amino-cyclohexyloxy)-3H-quinazolin-4-one] was below 10 µM; that for `CN1CCN(C2CCN(c3ccc4c(=O)[nH]cnc4c3)CC2)CC1` [Example 23, 7-[4-(4-Methyl-piperazin-1-yl)-piperidin-1-yl]-3H-quinazolin-4-one] was below 50 µM. For `NCC[C@@H](C(=O)Nc1ccc2c(=O)[nH]cnc2c1)c1ccc(Cl)c(Cl)c1` [Example 29, (R)-4-Amino-2-(3,4-dichloro-phenyl)-N-(4-oxo-3,4-dihydro-quinazolin-7-yl)butyramide], under setting [1], the IC50 was below 10 µM. As to `NC(c1ccc(Cl)cc1)C1CCN(c2ccc3c(=O)[nH]cnc3c2)CC1` (stereo not shown) [Example 36, 7-{4-[Amino-(4-chloro-phenyl)-methyl]-piperidin-1-yl}-3H-quinazolin-4-one], the IC50 under setting [1] is below 10 µM. The same measure, in the same setting: in the case of `NC1CCN(c2ccc3c(=O)[nH]cnc3c2)CC1` [Example 17, 7-(4-Amino-piperidin-1-yl)-3H-quinazolin-4-one] it was below 10 µM; in that of `O=c1[nH]cnc2cc(N3CCCNCC3)ccc12` [Example 19, 7-[1,4]Diazepan-1-yl-3H-quinazolin-4-one], below 10 µM.

Take `NC1(c2ccc(Cl)cc2)CCN(c2ccc3c(=O)[nH]cnc3c2)CC1` [Example 40, 7-[4-Amino-4-(4-chloro-phenyl)-piperidin-1-yl]-3H-quinazolin-4-one]: the IC50 under setting [1] is below 10 µM.

Turning to `O=c1[nH]cnc2cc(OCC3(c4ccccc4)CCNCC3)ccc12` [Example 7, 7-(4-Phenyl-piperidin-4-ylmethoxy)-3H-quinazolin-4-one], the IC50 under setting [1] was below 10 µM. Take `CN1CCCN(c2ccc3c(=O)[nH]cnc3c2)CC1` [Example 22, 7-(4-Methyl-[1,4]diazepan-1-yl)-3H-quinazolin-4-one]: the IC50 under setting [1] is below 10 µM. Still for that read-out and setting: the value for `NC1(Cc2ccc(Cl)cc2)CCN(c2ccc3c(=O)[nH]cnc3c2)CC1` [Example 38, 7-[4-Amino-4-(4-chloro-benzyl)-piperidin-1-yl]-3H-quinazolin-4-one] was below 10 µM; that for `NCC1(c2ccc(Cl)cc2)CCN(c2ccc3c(=O)[nH]cnc3c2)CC1` [Example 27, 7-[4-Aminomethyl-4-(4-chloro-phenyl)-piperidin-1-yl]-3H-quinazolin-4-one] was below 10 µM.

Regarding `O=C(Nc1ccc2c(=O)[nH]cnc2c1)C1(c2ccc(Cl)cc2)CCNCC1` [Example 30, 4-(4-Chloro-phenyl)-piperidine-4-carboxylic acid (4-oxo-3,4-dihydro-quinazolin-7-yl)-amide], the IC50 under setting [1] is below 10 µM. As to `O=c1[nH]cnc2cc(NCC3(c4ccc(Cl)cc4)CCNCC3)ccc12` [Example 32, 7-{[4-(4-Chloro-phenyl)-piperidin-4-ylmethyl]-amino}-3H-quinazolin-4-one], the IC50 under setting [1] is below 10 µM. With `CNCCC(C(=O)Nc1ccc2c(=O)[nH]cnc2c1)c1ccc(Cl)cc1` (stereo not shown) [Example 2, 2-(4-Chloro-phenyl)-4-methylamino-N-(4-oxo-3,4-dihydro-quinazolin-7-yl)-butyramide], the IC50 under setting [1] is below 10 µM. Still for that read-out and setting: in the case of `NCCCc1ccc2c(=O)[nH]cnc2c1` [Example 14, 7-(3-Amino-propyl)-3H-quinazolin-4-one] it was below 10 µM. Take `O=c1[nH]cnc2cc(N3CCC(CO)(c4ccc(Cl)cc4)CC3)ccc12` [Example 34, 7-[4-(4-Chloro-phenyl)-4-hydroxymethyl-piperidin-1-yl]-3H-quinazolin-4-one]: the IC50 under setting [1] is below 10 µM. Turning to `Cc1nc2cc(N3CCC(CN)(c4ccc(Cl)cc4)CC3)ccc2c(=O)[nH]1` [Example 35, 7-[4-Aminomethyl-4-(4-chloro-phenyl)-piperidin-1-yl]-2-methyl-3H-quinazolin-4-one], the IC50 under setting [1] was below 10 µM.

In the case of `Cn1c(=O)[nH]c(=O)c2ccc(OCC3(c4ccc(Cl)cc4)CCNCC3)cc21` [Example 37, 7-[4-(4-Chloro-phenyl)-piperidin-4-ylmethoxy]-1-methyl-1H-quinazoline-2,4-dione], the IC50 under setting [1] was below 10 µM. Compound `NCCCOc1ccc2c(=O)[nH]cnc2c1` [Example 9, 7-(3-Amino-propoxy)-3H-quinazolin-4-one] came in with an IC50 below 10 µM.

With `O=C(Nc1ccc2c(=O)[nH]cnc2c1)C1(c2ccccc2)CCNCC1` [Example 4, 4-Phenyl-piperidine-4-carboxylic acid (4-oxo-3,4-dihydro-quinazolin-7-yl)-amide], under setting [1], the IC50 is below 10 µM. In the case of `O=c1[nH]cnc2cc(N3CCNCC3)ccc12` [Example 18, 7-piperazin-1-yl-3H-quinazolin-4-one], the IC50 is below 10 µM. As for `O=C(NCc1ccc(Cl)cc1)Nc1ccc2c(=O)[nH]cnc2c1` [Example 5, 1-(4-Chloro-benzyl)-3-(4-oxo-3,4-dihydro-quinazolin-7-yl)-urea], under setting [1], the IC50 is below 10 µM. Take `O=c1[nH]cnc2cc(/C=C/C3(c4ccc(Cl)cc4)CCNCC3)ccc12` [Example 39, 7-{2-[4-(4-Chloro-phenyl)-piperidin-4-yl]-vinyl}-3H-quinazolin-4-one dihydrochloride]: under setting [1], the IC50 was below 10 µM.

In the case of `O=c1[nH]cnc2cc(N3CCNC(c4ccccc4)C3)ccc12` (stereo not shown) [Example 25], under setting [1], the IC50 is below 50 µM. As to `O=C(NCc1ccc(F)cc1)Nc1ccc2c(=O)[nH]cnc2c1` [Example 6, 1-(4-Fluoro-benzyl)-3-(4-oxo-3,4-dihydro-quinazolin-7-yl)-urea], under setting [1], the IC50 is below 10 µM.

For the compound `NCC1(Cc2ccc(Cl)cc2)CCN(c2ccc3c(=O)[nH]cnc3c2)CC1` [Example 41, 7-[4-Aminomethyl-4-(4-chloro-benzyl)-piperidin-1-yl]-3H-quinazolin-4-one], the IC50 under setting [1] was below 10 µM.

With `CN1CCN(c2ccc3c(=O)[nH]cnc3c2)CC1` [Example 26, 7-(4-Methyl-piperazin-1-yl)-3H-quinazolin-4-one], the IC50 under setting [1] is below 50 µM. With `O=C(NCc1ccccc1)Nc1ccc2c(=O)[nH]cnc2c1` [Example 8, 1-Benzyl-3-(4-oxo-3,4-dihydro-quinazolin-7-yl)-urea], the IC50 under setting [1] is below 10 µM. For the compound `O=c1[nH]cnc2cc(NC3CCCNC3)ccc12` (stereo not shown) [Example 20, 7-(Piperidin-3-ylamino)-3H-quinazolin-4-one], under setting [1], the IC50 is below 10 µM. The same measure, in the same setting: the value for `O=c1[nH]cnc2cc(OCC3(c4ccc(Cl)cc4)CCNCC3)ccc12` [Example 33, 7-[4-(4-Chloro-phenyl)-piperidin-4-ylmethoxy]-3H-quinazolin-4-one] was below 10 µM.
